Results from patent publication US20260364186A1, “Chemical Conjugates, Compositions, and Methods of Preparation and Use Thereof” (Transfection Holdings Limited, priority 2022, published 2026).
Entries after “also recorded” stand apart in the source; their conditions may differ.

Tested on: mouse embryonic fibroblasts MEF
Experiment: FACS uptake of BODIPY FL conjugates (Example 4)
Type: cell-based
Conditions: 200 nM, 5 min
Description: FIG. 4B: Conjugate compounds coupled to BODIPY FL were tested for uptake using 200 nM each conjugate and 5 minute incubation with mouse embryonic fibroblasts MEF. Mean fluorescent intensities (MFI). 1,000 cells were sorted by FACS.
Fibroblasts are ubiquitous mesenchymal cells that are thought to play important roles in wound repair and healing, and serve as reservoirs of multipotent progenitors capable of repopulating depleted cell compartments. Primary mouse embryonic fibroblast (MEF) cultures consist of highly heterogeneous populations of distinct cell types. Singhal, P. K., et al., 2016. MEF cells have a limited growth capacity and on prolonged passaging spontaneously immortalize at a low frequency. In contrast to transformation of primary MEF cells that requires the presence of two cooperating oncogenes, immortalised MEF cells can be transformed by a single oncogene (Ras) resulting in a loss of contact inhibition, anchorage-independent growth, and tumour formation in nude mice. Studies of MEF cells have played an important role in the elucidation of the molecular mechanisms underlying cellular immortalization, transformation, and tumorigenesis. Additionally, utilization of MEF cells disrupted for specific genes has provided a powerful tool to analyse the genetic regulation of these cellular processes. Sun and Taneja, 2007. […]

## CC1=CC(C)=[N+]2C1=Cc1ccc(CCCn3cc(CCNC(=O)/C=C/NC(=O)[C@H](O)C(C)(C)CO)nn3)n1[B-]2(F)F [Compound 124]
  uptake (fluorescent intensities): highest uptake; also recorded: showed uptake
